This assay deals with Human DGAT2 (hDGAT2) (Homo sapiens (Human), UniProt Q96PD7). Nature of the assay: In vitro DGAT2 assay, IC50 determination with hDGAT2 membrane fraction. The format is biochemical. Particulars: geometric mean; background for complete inhibition of DGAT2 obtained with 50 μM (1R,2R)-2-({3′-Fluoro-4′-[(6-fluoro-1,3-benzothiazol-2-yl)amino]-1,1′-biphenyl-4-yl}carbonyl)cyclopentanecarboxylic acid; read-out: DGAT2 IC50. As to the method:
Recombinant baculovirus for the FLAG-tagged hDGAT2 was generated in SF9 insect cells using Bac-to-Bac baculovirus expression system (Invitrogen) according to the manufacturer's protocol. For the expression of hDGAT2, SF9 cells (20 L) grown in Sf900II media were infected with hDGAT2 baculovirus at a multiplicity of infection of 1 in a Wave Bioreactor System 20/50P wave bag (GE Healthcare). After 40 hours of infection, the cells were then harvested by centrifugation at 5,000×g. The cell pellets were washed by resuspending in phosphate buffered saline (PBS) and collected by centrifugation at 5,000×g. The cell paste was flash frozen in liquid N2 and stored at −80° C. until needed. All operations below were at 4° C. unless otherwise noted. The cells were resuspended in lysis buffer (50 mM Tris-HCl, pH 8.0, 250 mM sucrose) including 1 mM ethylenediaminetetraacetic acid (EDTA) and the complete protease inhibitor cocktail (Roche Diagnostics) at a ratio of 3 ml buffer per 1 g cell paste. The cells were lysed by dounce homogenizer. The cell debris was removed by centrifugation at 1,000×g for 20 min, and the supernatant was centrifuged at 100,000×g for 1 hour. The resulting pellet was rinsed three times by filling ultracentrifuge tubes to the top with ice cold PBS before decanting. The washed pellet was resuspended with gentle stirring for 1 hour in lysis buffer containing 8 mM 3-[(3-cholamidopropyl)dimethylammonio]-1-propanesulfonate (CHAPS) at a ratio of 1 mL buffer per 1 g of original cell paste and centrifuged again at 100,000×g for 1 hour. The resulting supernatant (hDGAT2 membrane fraction) was aliquotted, flash frozen in liquid N2, and stored at −80° C. until use.
To 1 μL of compounds dissolved in 100% DMSO and spotted at the bottom of each well, 5 μL of 0.04% bovine serum albumin (BSA) (fatty acid free, Sigma Aldrich) was added and the mixture was incubated at room temperature for 20 minutes. To this mixture, 10 μL of hDGAT2 membrane fraction (0.01 mg/mL) diluted in 100 mM Hepes-NaOH, pH 7.4, 20 mM MgCl2 containing 200 nM methyl arachidonyl fluorophosphonate (Cayman Chemical; dried from ethyl acetate stock solution under argon gas and dissolved in DMSO as 5 mM stock) was added. […] The reaction mixtures were incubated at room temperature for 40 min and the reactions were stopped by addition of 5 μL of 1% H3PO4. After the addition of 45 μL MicroScint-E (Perkin-Elmer), plates were sealed with Top Seal-A covers (Perkin-Elmer) and phase partitioning of substrates and products was achieved using a HT-91100 microplate orbital shaker (Big Bear Automation, Santa Clara, Calif.). Plates were centrifuged at 2,000×g for 1 min in an Allegra 6R Centrifuge (Beckman Coulter) and then were sealed again with fresh covers before reading in a 1450 Microbeta Wallac Trilux Scintillation Counter (Perkin Elmer). DGAT2 activity was measured by quantifying the generated product [^14C]tridecanoylglycerol in the upper organic phase.
Inhibitors were tested at eleven different concentrations to generate IC50 values for each compound. […] Results are reported as geometric mean IC50 values.

Sequence of Human DGAT2 (hDGAT2) (Q96PD7 whole entry): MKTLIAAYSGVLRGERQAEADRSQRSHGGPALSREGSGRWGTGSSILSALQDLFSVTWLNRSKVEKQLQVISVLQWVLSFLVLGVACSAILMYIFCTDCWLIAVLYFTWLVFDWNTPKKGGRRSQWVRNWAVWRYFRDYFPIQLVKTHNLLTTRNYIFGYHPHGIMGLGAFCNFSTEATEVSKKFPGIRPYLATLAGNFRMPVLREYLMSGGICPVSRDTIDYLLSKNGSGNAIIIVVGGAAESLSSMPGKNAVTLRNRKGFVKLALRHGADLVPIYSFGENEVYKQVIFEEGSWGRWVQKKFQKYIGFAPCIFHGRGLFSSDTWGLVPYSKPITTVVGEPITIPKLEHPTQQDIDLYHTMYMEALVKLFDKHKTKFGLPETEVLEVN

Consider `O=C([C@@H]1CCCN(c2ccc3nc(-c4ccnc(C5CC5)n4)[nH]c3n2)C1)N1CC[C@H](O)C1` [Example 132, ((R)-1-(2-(2-Cyclopropylpyrimidin-4-yl)-3H-imidazo[4,5-b]pyridin-5-yl)piperidin-3-yl)((S)-3-hydroxypyrrolidin-1-yl)methanone], for which the IC50 (as a rule, the point on the concentration scale where inhibition reaches its midpoint) came to 695 nM. In the case of `c1cc(-c2nc3ccc(N4CCC[C@H](c5nnc6n5CCC6)C4)nc3[nH]2)nc(C2CC2)c1` [Example 171, (S)-2-(6-cyclopropylpyridin-2-yl)-5-(3-(6,7-dihydro-5H-pyrrolo[2,1-c][1,2,4]triazol-3-yl)piperidin-1-yl)-3H-imidazo[4,5-b]pyridine], the concentration for half-maximal inhibition (IC50) was 161 nM.

Consider `O=C([C@@H]1CCCN(c2ccc3nc(-c4cccc5ccnn45)[nH]c3n2)C1)N1CCCC1` [Example 12, (R)-(1-(2-(Pyrazolo[1,5-a]pyridin-7-yl)-3H-imidazo[4,5-b]pyridin-5-yl)piperidin-3-yl)(pyrrolidin-1-yl)methanone], for which the IC50 amounted to 54.7 nM.

`Cn1ncnc1C1(c2nc3ccc(N4CCC[C@@H](C(=O)N5CCCC5)C4)nc3[nH]2)CC1` [Example 223, (R)-(1-(2-(1-(1-Methyl-1H-1,2,4-triazol-5-yl)cyclopropyl)-3H-imidazo[4,5-b]pyridin-5-yl)piperidin-3-yl)(pyrrolidin-1-yl)methanone]: the IC50 came out at 1370 nM. For `Cc1cc(C2(c3nc4ccc(N5CCC[C@@H](C(=O)N6CCCC6)C5)nc4[nH]3)CC2)on1` [Example 86, (R)-(1-(2-(1-(3-Methylisoxazol-5-yl)cyclopropyl)-3H-imidazo[4,5-b]pyridin-5-yl)piperidin-3-yl)(pyrrolidin-1-yl)methanone] the value was 288 nM. With `O=C([C@@H]1CCCN(c2ccc3nc(-c4cccc(C(F)(F)F)n4)[nH]c3n2)C1)N1CCCC1` [Example 112, (R)-Pyrrolidin-1-yl(1-(2-(6-(trifluoromethyl)pyridin-2-yl)-3H-imidazo[4,5-b]pyridin-5-yl)piperidin-3-yl)methanone] the figure was 9.23 nM; with `Cc1cccc(=O)n1Cc1nc2ccc(N3CCC[C@@H](C(=O)N4CCCC4)C3)nc2[nH]1` [Example 57, (R)-6-Methyl-1-((5-(3-(pyrrolidine-1-carbonyl)piperidin-1-yl)-3H-imidazo[4,5-b]pyridin-2-yl)methyl)pyridin-2(1H)-one], 702 nM; with `O=C([C@@H]1CCCN(c2ccc3nc(-c4ccnc(C5CC5)n4)[nH]c3n2)C1)N1CCOCC1` [Example 70, (R)-(1-(2-(2-Cyclopropylpyrimidin-4-yl)-3H-imidazo[4,5-b]pyridin-5-yl)piperidin-3-yl)(morpholino)methanone], 162 nM. With `CC(C)c1csc(-c2nc3ccc(N4CCC[C@@H](C(=O)N5CCCC5)C4)nc3[nH]2)n1` [Example 4, (R)-(1-(2-(4-Isopropylthiazol-2-yl)-3H-imidazo[4,5-b]pyridin-5-yl)piperidin-3-yl)(pyrrolidin-1-yl)methanone] the figure was 6.64 nM. For the compound `COc1ccccc1C1(c2nc3ccc(N4CCC[C@@H](C(=O)N5CCCC5)C4)nc3[nH]2)CC1` [Example 92, (R)-(1-(2-(1-(2-Methoxyphenyl)cyclopropyl)-3H-imidazo[4,5-b]pyridin-5-yl)piperidin-3-yl)(pyrrolidin-1-yl)methanone], the IC50 was 242 nM. With `O=C([C@@H]1CCCN(c2ccc3nc(-c4cccc(F)c4)[nH]c3n2)C1)N1CCCC1` [Example 35, (R)-(1-(2-(3-Fluorophenyl)-3H-imidazo[4,5-b]pyridin-5-yl)piperidin-3-yl)(pyrrolidin-1-yl)methanone] the figure was 21.2 nM. On to `O=C([C@@H]1CCCN(c2ccc3nc(-c4cccc(-c5cnco5)c4)[nH]c3n2)C1)N1CCCC1` [Example 6, (R)-(1-(2-(3-(Oxazol-5-yl)phenyl)-3H-imidazo[4,5-b]pyridin-5-yl)piperidin-3-yl)(pyrrolidin-1-yl)methanone], for which the IC50 stood at 11.5 nM.

The values above are taken from patent US9296745B2, “Diacylglycerol acyltransferase 2 inhibitors” (Pfizer Inc., priority 2012, dated 2016).
